The source of these data is patent publication US5399553A, “Tricyclic compound or salts thereof, method for producing the same and anti-microbial agent containing the same” (Wakunaga Seiyaku Kabushiki Kaisha, priority 1990, dated 1995).

Data set [1] deals with S. aureus 209p (IFO 12732). The data set is described as follows: Antimicrobial activity, minimum inhibitory concentration (MIC), S. aureus 209p. Format: cell-based. The following applies: Staphylococcus aureus. On the procedure: (§1) The minimum inhibitory concentration (MIC: μg/ml) of typical compounds represented by general formula (1) of the present invention is measured by the standard method of Japanese literature "Chemotherapy, Volume 29, No. 1, pp. 76-79, 1981". The results are shown in Table 1 in which compound numbers are the same as those indicated in Examples.

The test system of data set [2] is E. coli NIH JC-2 (IFO 12734). The experiment in a line: Antimicrobial activity, minimum inhibitory concentration (MIC), E. coli NIH JC-2. Type of data set: cell-based. The following applies: Escherichia coli, IFO12734. How it is done:
as §1

A short description of data set [3]: Recovery in bile after oral administration (absorption and excretion). Type of data set: in vivo, rats. As to conditions: 20 mg/kg, rat, prepared as for urine (20 mg/10 ml/kg), disk method, read-out: Excretion Rate In Bile. How it is done: (§2) The absorbability and excretion after oral administration of the compounds, of the present invention were tested by measuring recovery in urine and in bile as follows.
A subject compound was prepared in the same manner as the recovery in urine and was orally administrated to the rats and bile was collected by using a polyethylene tube inserted into the choledochus in 24 hours. The concentration of the subject compound in the bile sample was examined in the same manner as the recovery in urine to obtain an excretion rate in bile for 24 hours.

Another data set has as its system P. aeruginosa (IFO 3445). The data set is described as follows: Antimicrobial activity, minimum inhibitory concentration (MIC), P. aeruginosa. Format: cell-based. As to conditions: Pseudomonas aeruginosa, IFO3445. How it is done: as §1
Data set [4] can be described thus: Recovery in urine after oral administration (absorption and excretion). As to conditions: 20 mg/kg, rat, 20 mg/10 ml/kg in 0.5% methylcellulose, disk method, read-out: Excretion Rate In Urine. Format: in vivo, male JCL-SD rats. On the procedure: as §2
To a group of three male JCL-SD rats (6 weeks old) fasted overnight, a subject compound was prepared to 20 mg/10 ml/kg with 0.5% of methylcellulose solution and was orally administrated. The sampling was carried out by collecting urine in 0 to 6 hours and 6 to 24 hours. The concentration of the subject compound in the urine was examined by a disk method by using Bacillus subtilis ATCC 33 as a testing bacillus to obtain an excretion rate in urine for 24 hours.

≈ marks a conversion by molar mass, not a printed value.

In general, MIC refers to the smallest concentration in the dilution series that meets the test's criterion for growth inhibition. A lower MIC goes with a more susceptible organism. With `C[C@H]1CN(c2c(F)cc3c(=O)c(C(=O)O)cn4c3c2CCN4C)C[C@H]1N` (single isomer, unassigned) [Compound 30, 4-(cis (-) 3-Amino-4-methylpyrrolidin-1-yl)-5-fluoro-2,3-dihydro-1-methyl-7-oxo-1H,7H-pyrido[3,2,1-ij]cinnoline-8-carboxylic acid], the MIC in data set [1] was 0.1 µg/mL (≈ 0.277 µM); in data set [2], 0.025 µg/mL (≈ 0.0694 µM); with P. aeruginosa (IFO 3445) it was 0.2 µg/mL (≈ 0.555 µM). In addition, the dose excreted at 24 h in data set [3] amounted to 3.8%; in data set [4], 59.7%.

With `CN1CCc2c(OCC3(N)CC3)c(F)cc3c(=O)c(C(=O)O)cn1c23` [Compound 73], the values for the MIC (in data set [1]; in data set [2]; with P. aeruginosa (IFO 3445)) were 0.78 µg/mL (≈ 2.25 µM), 0.1 µg/mL (≈ 0.288 µM) and 0.78 µg/mL (≈ 2.25 µM), respectively.
